US10709690B2, “Combination therapy with nitrated lipids and inhibitors of the renin-angiotensin-aldosterone system” (THE UNIVERSITY OF UTAH RESEARCH FOUNDATION, priority 2011, dated 2020)

Experiments:
Format in all cases: in vivo
renal COX-2 protein = test: Renal COX-2 protein expression in db/db mice by immunoblotting; settings: 12 days; for changes of renal COX-2 protein expression relative to the vehicle group: OA-NO2 10 mg/kg/d via osmotic mini-pump, losartan via diet
Description: Lean mice (non-diabetic) with vehicle treatment were used as controls. Renal COX-2 protein was analyzed by using immunoblotting.
Male 3-4-month-old db/db mice were from Jackson Laboratories (Bar Harbor, Me.). All animals were housed in an air-conditioned room with a 12-hour light/dark cycle. All procedures and protocols were in accordance with guidelines set by the Laboratory Animal Care Committee at the University of Utah.
9-Nitrooleic acid and 10-nitrooleic acid are two regioisomers of nitrooleic acid (OA-NO2), which are formed by nitration of oleic acid in approximately equal proportions (Hayama et al. Chemistry Letters pp. 1109-1112, 1982). The two compounds were purchased from Cayman Chemicals (Ann Arbor, Mich.) (9-nitrooleic acid: Cat #10008042; 10-nitrooleic acid: Cat #10008043) and used as an 1:1 mixture of the isomers.
db/db mice were implanted with a 3-week osmotic mini-pump which delivered a vehicle or OA-NO2 at 10 mg/kg/d. Animals were fed with losartan, which is an AT1 blocker. 24-h urine samples were collected before and after the treatment.
Renal COX-2 expression in db/db mice treated as above was examined by immunoblotting.

db/db mice [1] = test: Urinary TBARS in db/db mice, 12-day treatment; settings: OA-NO2 10 mg/kg/d via osmotic mini-pump, losartan via diet; for effect on urinary TBARS (in words): 12 days; for changes of urinary TBARS relative to the vehicle group: after 12 days
Description: (§1) FIG. 2 is a bar graph comparing the amounts of urinary thiobarbituric acid reactive substances (TBARS) in db/db mice before and after 12-d infusion with vehicle, losartan, nitrooleic acid (OA-NO2), or losartan+OA-NO2. Lean mice (non-diabetic) with vehicle treatment were used as controls. Losartan was administered via diet, while vehicle and OA-NO2 were each infused via osmotic mini-pump. Lean: n=5; vehicle: n=10; losartan: n=8; OA-NO2: n=9; losartan+OA-NO2: n=10. Data are mean±SE. Male 3-4-month-old db/db mice were from Jackson Laboratories (Bar Harbor, Me.). All animals were housed in an air-conditioned room with a 12-hour light/dark cycle. All procedures and protocols were in accordance with guidelines set by the Laboratory Animal Care Committee at the University of Utah. 9-Nitrooleic acid and 10-nitrooleic acid are two regioisomers of nitrooleic acid (OA-NO2), which are formed by nitration of oleic acid in approximately equal proportions ([…] et al. Chemistry Letters pp. 1109-1112, 1982). The two compounds were purchased from Cayman Chemicals (Ann Arbor, Mich.) (9-nitrooleic acid: Cat #10008042; 10-nitrooleic acid: Cat #10008043) and used as an 1:1 mixture of the isomers. db/db mice were implanted with a 3-week osmotic mini-pump which delivered a vehicle or OA-NO2 at 10 mg/kg/d. Animals were fed with losartan, which is an AT1 blocker. 24-h urine samples were collected before and after the treatment.

db/db mice [2] = test: Urinary albumin in db/db mice, 12-day treatment; settings: 12-day study, OA-NO2 10 mg/kg/d via osmotic mini-pump, losartan via diet; for changes of urinary albumin relative to the vehicle group: + increase, − decrease in albuminuria
Description: FIG. 1 is a bar graph comparing the amounts of urinary albumin in db/db mice before and after a 12 day (12-d) administration of vehicle, losartan, nitrooleic acid (OA-NO2), or losartan+OA-NO2. Lean mice (non-diabetic) with vehicle treatment were used as controls. losartan was administered via diet, while OA-NO2 and vehicle were each infused via osmotic mini-pump. Lean: n=5; vehicle: n=10; losartan: n=8; OA-NO2: n=9; losartan+OA-NO2: n=10. Data are mean±SE. Male 3-4-month-old db/db mice were from Jackson Laboratories (Bar Harbor, Me.). All animals were housed in an air-conditioned room with a 12-hour light/dark cycle. All procedures and protocols were in accordance with guidelines set by the Laboratory Animal Care Committee at the University of Utah. 9-Nitrooleic acid and 10-nitrooleic acid are two regioisomers of nitrooleic acid (OA-NO2), which are formed by nitration of oleic acid in approximately equal proportions ([…] et al. Chemistry Letters pp. 1109-1112, 1982). The two compounds were purchased from Cayman Chemicals (Ann Arbor, Mich.) (9-nitrooleic acid: Cat #10008042; 10-nitrooleic acid: Cat #10008043) and used as an 1:1 mixture of the isomers. db/db mice were implanted with a 3-week osmotic mini-pump which delivered a vehicle or OA-NO2 at 10 mg/kg/d. Animals were fed with losartan, which is an AT1 blocker. 24-h urine samples were collected before and after the treatment. […] The plus symbol (+) means an increase and the minus symbol (-) indicates a decrease in albuminuria.

db/db mice [3] = test: Renal TBARS in db/db mice, 12-day treatment; settings: 12 days, OA-NO2 10 mg/kg/d via osmotic mini-pump, losartan via diet
Source text: as §1, with “Lean” for “FIG. 2 is a bar graph comparing the amounts of urinary thiobarbituric acid reactive substances (TBARS) in db/db mice before and after 12-d infusion with vehicle, losartan, nitrooleic acid (OA-NO2), or losartan+OA-NO2. Lean”, “Losartan was administered via diet, while vehicle and OA-NO2 were each infused via osmotic mini-pump.” left out

[4] = system: renal heme oxygenase-1 (HO-1) protein; test: Renal heme oxygenase-1 protein expression in db/db mice by immunoblotting; settings: 12 days; for changes of renal HO-1 protein expression relative to the vehicle group: OA-NO2 10 mg/kg/d via osmotic mini-pump, losartan via diet
Description: as §1, with “Lean” for “FIG. 2 is a bar graph comparing the amounts of urinary thiobarbituric acid reactive substances (TBARS) in db/db mice before and after 12-d infusion with vehicle, losartan, nitrooleic acid (OA-NO2), or losartan+OA-NO2. Lean”, “Renal HO-1 protein” for “Losartan”, “analyzed by using immunoblotting. […]” for “administered via diet, while vehicle and OA-NO2 were each infused via osmotic mini-pump. Lean: n=5; vehicle: n=10; losartan: n=8; OA-NO2: n=9; losartan+OA-NO2: n=10. Data are mean±SE.”, “treatment. Renal HO-1 expression was examined using immunoblotting.” for “treatment.”

Compound | effect on renal COX-2 expression (in words) (renal COX-2 protein) | changes of renal COX-2 protein expression relative to the vehicle group (renal COX-2 protein) [%] | effect on urinary TBARS (in words) (db/db mice [1]) | changes of urinary TBARS relative to the vehicle group (db/db mice [1]) | effect on urinary albumin excretion (in words) (db/db mice [2]) | changes of urinary albumin relative to the vehicle group (db/db mice [2]) | effect on renal TBARS content (in words) (db/db mice [3]) | effect on renal HO-1 expression (in words) [4] | changes of renal HO-1 protein expression relative to the vehicle group [4]
CCCCc1nc(Cl)c(CO)n1Cc1ccc(-c2ccccc2-c2nn[nH]n2)cc1 [losartan] | modest effect | −5.3 | without an effect | +33.4% | Neither losartan or OA-NO2 alone exhibited a statistically significant effect | +7% | trend of reduction but none of these changes reached statistical significance | elevated | +97.6%
nitrooleic acid [OA-NO2] | modest effect | −14.8 | without an effect | +16.5% | Neither losartan or OA-NO2 alone exhibited a statistically significant effect | −13% | trend of reduction but none of these changes reached statistical significance | elevated | +48.8%
